The values below come from US12377042B2, “Botanical and bacterial extracts displaying retinol-like activity” (KENVUE BRANDS LLC, priority 2018, dated 2025).

Test [1] has as its target T1, Retinoic acid receptor gamma (RARg) (Homo sapiens, UniProt P13631).
T1 construct: the UAS-driven beta-lactamase is the reporter
T1 sequence (P13631 185-419 limits assumed): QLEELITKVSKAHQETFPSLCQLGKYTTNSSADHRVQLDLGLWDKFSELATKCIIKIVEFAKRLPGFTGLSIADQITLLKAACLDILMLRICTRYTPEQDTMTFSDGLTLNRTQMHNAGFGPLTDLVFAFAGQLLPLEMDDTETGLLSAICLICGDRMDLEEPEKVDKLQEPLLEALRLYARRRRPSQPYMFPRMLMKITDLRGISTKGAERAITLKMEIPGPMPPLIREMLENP
Nature of the test: RARg Transactivation Assay (GeneBLAzer RAR gamma-UAS-bla HEK 293T). It counts as cell-based. To be noted: solution in DMSO at different concentrations.
Protocol: Retinoic acid receptor gamma (RARg) agonism was assessed using the Invitrogen GeneBLAzer RAR gamma-UAS-bla HEK 293T cell-based assay, in which activation of RARg results in transcription of beta lactamase. When a FRET probe is added to cells, FRET is observed. However, upon receptor activation and subsequent beta lactamase expression, the probe is cleaved and FRET is no longer observed.
Cells in culture are washed with PBS, trypsinized and resuspended in growth media, counted using ViCell cell counter; the appropriate amount of cells is then spun down and resuspended in assay buffer (at 0.5E6 cells/ml). 15 k cells in 30 ul assay buffer is plated per well in Greiner black walled, clear flat bottom plates using Combi dispenser. The last two columns are filled with assay buffer. […]
After 18-20 h of incubation, 8 ul FRET dye (Invitrogen K1096) is added using Tempest dispenser, after which plates are spun down at 800 rpm for 2 min without brakes and incubated in the dark at room temperature for 2 h. The bottom of the plates is cleaned using anti-static cleaning wipe before measuring fluorescence using BMG Pherastar plate reader (using FRET module, 10 reads, gain for both channels=1000, Ex 409, Em1 460, Em2 530). […]

For test [2], the system named is human epidermal skin equivalents. Nature of the test: Oleic acid induced hyperkeratinization in human epidermal skin equivalents. It counts as cell-based. The conditions noted are these: for % Hyperkeratinization (normalized by 10% OA), Average / Stratum Corneum Thickness (% of Total Epidermis), Average: topical. On the procedure:
Human epidermal skin equivalents from MatTek Company (Ashland, MA, USA) were used. The skin equivalents were topically treated with 10% oleic acid (OA) either without or with the addition of 1 μM 3-(4-farnesyloxyphenyl)-propionic acid in a proprietary MatTek medium (pheno-red free, hydrocortisone free) for 48 hours. The epidermal skin equivalents were collected at the end of treatment and fixed in 10% neutral buffered formalin solution (Thermo Fisher Scientific, Hudson, NH, USA), dehydrated and embedded in paraffin. Tissue sections (5 μm thick) were cut and were stained with hematoxylin-eosin. Three pictures per section were taken for each skin equivalent. The thickness of the stratum cornea or epidermis was measured using ImagePro Plus (Media Cybernetics Inc., Rockville, MD, USA). The stratum corneum thickness was expressed as % of total epidermis (=thickness of stratum corneum divided by the sum of thicknesses of stratum corneum and epidermis). The % hyperkeratinizatin was normalized by the thickness of 10% OA-treated tissues. Statistical analysis was performed using two-tailed two-sample equal variance Student t test (Microsoft Office Excel 2007; Microsoft, Redmond, WA, USA).

Setting [3] is: 1 uM together with 10% oleic acid, 48 hours.

The structures appear in SMILES notation.

A word on the EC50: it is the concentration at which the effect is half-maximal. Low readings indicate greater potency, high ones weaker potency. In test [1], `CC(C)=CCCC(C)=CCCC(C)=CCOc1ccc(CCC(=O)O)cc1` [3-(4-farnesyloxyphenyl)-propionic acid] showed an EC50 of 594 nM. Further, in test [2] (setting [3]), the “% Hyperkeratinization (normalized by 10% OA), Average” value worked out at 76% and the “Stratum Corneum Thickness (% of Total Epidermis), Average” value is reported as 38%. Moreover, the “oleic-acid (OA) induced hyperkeratinization (in words)” value in test [2] (1 uM with 10% oleic acid, 48 hours, p<0.05) was “significantly (p<0.05) reduced”.

With `CCCCCCCC/C=C\CCCCCCCC(=O)O` [oleic acid, reference compound], the “Stratum Corneum Thickness (% of Total Epidermis), Average” value in test [2] (10% oleic acid alone, 48 hours) is listed as 50%. Also, in test [2] (10% oleic acid alone, 48 hours (reference)), the “% Hyperkeratinization (normalized by 10% OA), Average” value came to 100%.
